Assay results taken from patent publication US20140296212A1, “SUBSTITUTED PHENOXYPROPYLCYCLOAMINE DERIVATIVES AS HISTAMINE-3 (H3) RECEPTOR LIGANDS” (CEPHALON, INC., priority 2009, published 2014).

The compounds below were run against T1, human H3 receptor (Homo sapiens, UniProt Q9Y5N1) (assay: Human H3 radioligand binding ([3H]-N-alpha-methylhistamine, SPA)). Details: membranes of CHO cells expressing human H3.
T1 construct: expressed in transfected cells
T1 sequence (Q9Y5N1 whole entry): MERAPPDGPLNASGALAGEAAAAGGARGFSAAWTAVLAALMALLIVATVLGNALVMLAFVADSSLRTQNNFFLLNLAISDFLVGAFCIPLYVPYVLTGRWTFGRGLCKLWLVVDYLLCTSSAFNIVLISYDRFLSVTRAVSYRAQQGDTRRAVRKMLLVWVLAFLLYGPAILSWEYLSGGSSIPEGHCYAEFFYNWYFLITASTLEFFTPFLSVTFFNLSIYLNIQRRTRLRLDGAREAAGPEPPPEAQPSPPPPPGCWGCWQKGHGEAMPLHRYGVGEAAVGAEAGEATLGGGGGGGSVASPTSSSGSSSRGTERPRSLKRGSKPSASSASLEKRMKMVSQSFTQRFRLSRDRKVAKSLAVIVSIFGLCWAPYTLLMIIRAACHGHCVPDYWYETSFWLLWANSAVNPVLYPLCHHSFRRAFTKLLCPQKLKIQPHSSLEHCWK
Method: Cell pellets were resuspended in 5 mM Tris-HCl, pH 7.5 with 5 nM EDTA and a cocktail of protease inhibitors (Complete Protease Inhibitor Tablets, Roche Diagnostics). Cells were disrupted using a polytron cell homogenizer and the suspension was centrifuged at 1000×g for 10 minutes at 4° C. The pellet was discarded and the supernatant centrifuged at 40,000×g for 30 min at 4° C. This membrane pellet was washed in membrane buffer containing 50 mM Tris-HCl, pH 7.5 with 0.6 mM EDTA, 5 mM MgCl2 and protease inhibitors, recentrifuged as above and the final pellet resuspended in membrane buffer plus 250 mM sucrose and frozen at −80° C.
(§1) Membranes were resuspended in 50 mM Tris HCl (pH 7.4), 5 mM MgCl2, 0.1% BSA. The membrane suspensions (10 μg protein per well) were incubated in a 96 well microtiter plate with [^3H]-N-alpha-methylhistamine (approximately 1 nM final concentration), test compounds at various concentrations (0.01 nM-30 μM) and scintillation proximity beads (Perkin Elmer, FlashBlueGPCR Scintillating Beads) in a final volume of 80 μl for 4 hours at room temperature, protected from light. Non-specific binding was determined in the presence of 10 μM clobenpropit. Radioligand bound to receptor, and therefore in proximity to the scintillation beads, was measured using a MicroBeta scintillation counter.
CC1CCCN1CCCOc1ccc(C(CN2CCOCC2)=NOC(C)(C)C)cc1 (racemic) [Example 165] showed a Ki of 0.1 to 100 nM.
O=C(CN1CCCCC1)c1ccc(OCCCN2CCCCC2)cc1 [Example 2, 2-Piperidin-1-yl-1-[4-(3-piperidin-1-yl-propoxy)-phenyl]-ethanone] gave a Ki of 0.1 to 100 nM.
O=C(CN1CCCCC1)c1ccc(OCCCN2CCCC2)cc1 [Example 3, 2-Piperidin-1-yl-1-[4-(3-pyrrolidin-1-yl-propoxy)-phenyl]-ethanone] gave a Ki of 0.1 to 100 nM.
In the case of O=C(CN1CCc2ccccc2C1)c1ccc(OCCCN2CCCCC2)cc1 [Example 4, 2-(3,4-Dihydro-1H-isoquinolin-2-yl)-1-[4-(3-piperidin-1-yl-propoxy)-phenyl]-ethanone], the Ki is reported as 0.1 to 100 nM.
Work on O=C(CN1CCc2ccccc2C1)c1ccc(OCCCN2CCCC2)cc1 [Example 5, 2-(3,4-Dihydro-1H-isoquinolin-2-yl)-1-[4-(3-pyrrolidin-1-yl-propoxy)-phenyl]-ethanone] yielded a Ki of 0.1 to 100 nM.
With O=C(CN1Cc2ccccc2C1)c1ccc(OCCCN2CCCCC2)cc1 [Example 6, 2-(1,3-Dihydro-isoindol-2-yl)-1-[4-(3-piperidin-1-yl-propoxy)-phenyl]-ethanone] the Ki was 0.1 to 100 nM.
For O=C(CN1CCCc2ccccc21)c1ccc(OCCCN2CCCCC2)cc1 [Example 7, 2-(3,4-Dihydro-2H-quinolin-1-yl)-1-[4-(3-piperidin-1-yl-propoxy)-phenyl]-ethanone], the Ki was 0.1 to 100 nM.
For C[C@@H]1CCCN1CCCOc1ccc(C(=O)CN2CCCCC2)cc1 [Example 8, 1-{4-[3-((R)-2-Methyl-pyrrolidin-1-yl)-propoxy]-phenyl}-2-piperidin-1-yl-ethanone], the Ki was 0.1 to 100 nM.
Compound C[C@@H]1CCCN1CCCOc1ccc(C(=O)CN2CCc3ccccc3C2)cc1 [Example 9, 2-(3,4-Dihydro-1H-isoquinolin-2-yl)-1-{4-[3-((R)-2-methyl-pyrrolidin-1-yl)-propoxy]-phenyl}-ethanone] has a Ki of 0.1 to 100 nM.
In the case of CC1CCCCN1CCCOc1ccc(C(=O)CN2CCCCC2)cc1 (stereo not drawn) [Example 10, 1-{4-[3-(2-Methyl-piperidin-1-yl)-propoxy]-phenyl}-2-piperidin-1-yl-ethanone], the Ki is reported as 0.1 to 100 nM.
In the case of CC1CCCC(C)N1CCCOc1ccc(C(=O)CN2CCCCC2)cc1 (stereo not drawn) [Example 11, 1-{4-[3-(2,6-Dimethyl-piperidin-1-yl)-propoxy]-phenyl}-2-piperidin-1-yl-ethanone], the Ki is reported as 0.1 to 100 nM.
Compound C[C@@H]1CC[C@@H](C)N1CCCOc1ccc(C(=O)CN2CCCCC2)cc1 [Example 12, 1-{4-[3-((2R,5R)-2,5-Dimethyl-pyrrolidin-1-yl)-propoxy]-phenyl}-2-piperidin-1-yl-ethanone] has a Ki of 0.1 to 100 nM.
In the case of C[C@H]1CCCN1CCCOc1ccc(C(=O)CN2CCCCC2)cc1 [Example 13, 1-{4-[3-((S)-2-Methyl-pyrrolidin-1-yl)-propoxy]-phenyl}-2-piperidin-1-yl-ethanone], the Ki is reported as 0.1 to 100 nM.
In the case of CC(C(=O)c1ccc(OCCCN2CCCC2)cc1)N1CCCCC1 (stereo not drawn) [Example 14, 2-Piperidin-1-yl-1-[4-(3-pyrrolidin-1-yl-propoxy)-phenyl]-propan-1-one], the Ki is reported as 0.1 to 100 nM.
For CC(C)N1CCN(CCCOc2ccc(C(=O)CN3CCCCC3)cc2)CC1 [Example 16, 1-{4-[3-(4-Isopropyl-piperazin-1-yl)-propoxy]-phenyl}-2-piperidin-1-yl-ethanone], the Ki was 0.1 to 100 nM.
In the case of O=C(CN1CCN(c2ccccc2)CC1)c1ccc(OCCCN2CCCC2)cc1 [Example 17, 2-(4-Phenyl-piperazin-1-yl)-1-[4-(3-pyrrolidin-1-yl-propoxy)-phenyl]-ethanone], the Ki is reported as 0.1 to 100 nM.
Compound CC1CCCN1CCCOc1ccc(C(=O)CN2CCN(c3ccccc3)CC2)cc1 (stereo not drawn) [Example 18, 1-{4-[3-(2-Methyl-pyrrolidin-1-yl)-propoxy]-phenyl}-2-(4-phenyl-piperazin-1-yl)-ethanone] has a Ki of 0.1 to 100 nM.
Compound CC(C(=O)c1ccc(OCCCN2CCCC2)cc1)N1CCCC1 (stereo not drawn) [Example 23, 2-Pyrrolidin-1-yl-1-[4-(3-pyrrolidin-1-yl-propoxy)-phenyl]-propan-1-one] has a Ki of 0.1 to 100 nM.
In the case of CC1CCCN1CCCOc1ccc(C(=O)C(C)N2CCCC2)cc1 (stereo not drawn) [Example 24, 1-{4-[3-(2-Methyl-pyrrolidin-1-yl)-propoxy]-phenyl}-2-pyrrolidin-1-yl-propan-1-one], the Ki is reported as 0.1 to 100 nM.
For CC(C(=O)c1ccc(OCCCN2CCCC2)cc1)N1CCOCC1 (stereo not drawn) [Example 25, 2-Morpholin-4-yl-1-[4-(3-pyrrolidin-1-yl-propoxy)-phenyl]-propan-1-one], the Ki was 0.1 to 100 nM.
CC(C(=O)c1ccc(OCCCN2CCCCC2)cc1)N1CCOCC1 (stereo not drawn) [Example 26, 2-Morpholin-4-yl-1-[4-(3-piperidin-1-yl-propoxy)-phenyl]-propan-1-one] gave a Ki of 0.1 to 100 nM.
CC1CCCN1CCCOc1ccc(C(=O)C(C)N2CCN(c3ccccc3)CC2)cc1 (stereo not drawn) [Example 28, 1-{4-[3-(2-Methyl-pyrrolidin-1-yl)-propoxy]-phenyl}-2-(4-phenyl-piperazin-1-yl)-propan-1-one] was tested, and the Ki was 0.1 to 100 nM.
In the case of CC(C(=O)c1ccc(OCCCN2CCCC2)cc1)N1CCN(c2ccccc2)CC1 (stereo not drawn) [Example 30, 2-(4-Phenyl-piperazin-1-yl)-1-[4-(3-pyrrolidin-1-yl-propoxy)-phenyl]-propan-1-one], the Ki is reported as 0.1 to 100 nM.
CC(C(=O)c1ccc(OCCCN2CCCCC2)cc1)N1CCN(c2ccccc2)CC1 (stereo not drawn) [Example 31, 2-(4-Phenyl-piperazin-1-yl)-1-[4-(3-piperidin-1-yl-propoxy)-phenyl]-propan-1-one] gave a Ki of 0.1 to 100 nM.
CC(=O)N1CCN(C(C)C(=O)c2ccc(OCCCN3CCCCC3)cc2)CC1 (stereo not drawn) [Example 32, 2-(4-Acetyl-piperazin-1-yl)-1-[4-(3-piperidin-1-yl-propoxy)-phenyl]-propan-1-one] was tested, and the Ki was 0.1 to 100 nM.
For CC(=O)N1CCN(C(C)C(=O)c2ccc(OCCCN3CCCC3C)cc2)CC1 (stereo not drawn) [Example 33, 2-(4-Acetyl-piperazin-1-yl)-1-{4-[3-(2-methyl-pyrrolidin-1-yl)-propoxy]-phenyl}-propan-1-one], the Ki was 0.1 to 100 nM.
CC(C(=O)c1ccc(OCCCN2CCCCC2)cc1)N1CCSCC1 (stereo not drawn) [Example 34, 1-[4-(3-Piperidin-1-yl-propoxy)-phenyl]-2-thiomorpholin-4-yl-propan-1-one] showed a Ki of 0.1 to 100 nM.
CC1CCCN1CCCOc1ccc(C(=O)C(C)N2CCSCC2)cc1 (stereo not drawn) [Example 35, 1-{4-[3-(2-Methyl-pyrrolidin-1-yl)-propoxy]-phenyl}-2-thiomorpholin-4-yl-propan-1-one] showed a Ki of 0.1 to 100 nM.
With CC(C(=O)c1ccc(OCCCN2CCC[C@@H]2C)cc1)N1CCCCC1=O (stereo partly drawn) [Example 36, 1-(1-Methyl-2-{4-[3-((S)-2-methyl-pyrrolidin-1-yl)-propoxy]-phenyl}-2-oxo-ethyl)-piperidin-2-one] the Ki was 101 to 500 nM.
CO/N=C(\CN1CCCCC1)c1ccc(OCCCN2CCC[C@H]2C)cc1 [Example 159] was tested, and the Ki was 0.1 to 100 nM.
With CO/N=C(/CN1CCCCC1)c1ccc(OCCCN2CCC[C@H]2C)cc1 [Example 161] the Ki was 0.1 to 100 nM.
CON=C(c1ccc(OCCCN2CCCCC2)cc1)C(C)N1CCCCC1 (stereo not drawn) [Example 163] gave a Ki of 0.1 to 100 nM.
Work on CC(C(=NOCc1ccccc1)c1ccc(OCCCN2CCCCC2)cc1)N1CCCCC1 (stereo not drawn) [Example 164] yielded a Ki of 0.1 to 100 nM.
CC1CCCN1CCCOc1ccc(/C(CN2CCN(c3ccccc3)CC2)=N/OC(C)(C)C)cc1 (stereo not drawn) [Example 166] gave a Ki of 0.1 to 100 nM.
CON=C(c1ccc(OCCCN2CCCC2C)cc1)C(C)N1CCCCC1 (stereo not drawn) [Example 169] gave a Ki of 0.1 to 100 nM.
C[C@@H]1CCCN1CCCOc1ccc(/C(CN2CCOCC2)=N/OC2CCCCC2)cc1 [Example 170] was tested, and the Ki was 0.1 to 100 nM.
In the case of CC(C)O/N=C(\CN1CCOCC1)c1ccc(OCCCN2CCC[C@H]2C)cc1 [Example 171], the Ki is reported as 0.1 to 100 nM.

These compounds were tested against T2, rat histamine H3 receptor (Rattus norvegicus, UniProt Q9QYN8) (assay: Rat H3 radioligand binding ([3H]-N-alpha-methylhistamine, SPA)). Details: not given.
T2 construct: encoding the entire 445-amino-acid rat histamine H3 receptor; expressed in transfected cells
T2 sequence (Q9QYN8 whole entry): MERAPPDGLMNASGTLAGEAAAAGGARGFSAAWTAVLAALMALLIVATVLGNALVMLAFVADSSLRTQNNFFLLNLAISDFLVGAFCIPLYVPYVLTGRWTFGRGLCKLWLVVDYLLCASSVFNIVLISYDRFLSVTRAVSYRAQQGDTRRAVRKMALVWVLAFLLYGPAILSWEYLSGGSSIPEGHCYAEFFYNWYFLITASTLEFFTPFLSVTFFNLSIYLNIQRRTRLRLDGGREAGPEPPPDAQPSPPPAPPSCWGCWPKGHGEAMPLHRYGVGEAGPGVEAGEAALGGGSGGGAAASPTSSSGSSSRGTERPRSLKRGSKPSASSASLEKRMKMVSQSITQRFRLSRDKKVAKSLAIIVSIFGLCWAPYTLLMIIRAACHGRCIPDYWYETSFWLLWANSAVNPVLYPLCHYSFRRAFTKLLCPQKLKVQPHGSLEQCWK
Description: The rat H3 receptor cDNA was PCR amplified from reverse-transcribed RNA pooled from rat thalamus, hypothalamus, striatum and prefrontal cortex with a sequence corresponding to by #338-1672 of Genbank file #NM_053506, encoding the entire 445-amino-acid rat histamine H3 receptor. This was engineered into the pIRES-neo3 mammalian expression vector, which was stably transfected into the CHO-A3 cell line (Euroscreen, Belgium), followed by clonal selection by limiting dilution. Cells were harvested and cell pellets were frozen (−80° C.). Cell pellets were resuspended in 5 mM Tris-HCl, pH 7.5 with 5 nM EDTA and a cocktail of protease inhibitors (Complete Protease Inhibitor Tablets, Roche Diagnostics). Cells were disrupted using a polytron cell homogenizer and the suspension was centrifuged at 1000×g for 10 minutes at 4° C. The pellet was discarded and the supernatant centrifuged at 40,000×g for 30 min at 4° C. This membrane pellet was washed in membrane buffer containing 50 mM Tris-HCl, pH 7.5 with 0.6 mM EDTA, 5 mM MgCl2 and protease inhibitors, recentrifuged as above and the final pellet resuspended in membrane buffer plus 250 mM sucrose and frozen at −80° C.
as §1
For CC1CCCN1CCCOc1ccc(C(=O)CN2CCOCC2)cc1 (stereo not drawn) [Example 1, 1-{4-[3-(2-Methyl-pyrrolidin-1-yl)-propoxy]-phenyl}-2-morpholin-4-yl-ethanone], the Ki was 0.1 to 100 nM.
Work on C[C@@H]1CCCN1CCCOc1ccc(C(=O)CN2CCOCC2)cc1 [Example 41, 1-{4-[3-((R)-2-Methyl-pyrrolidin-1-yl)-propoxy]-phenyl}-2-morpholin-4-yl-ethanone] yielded a Ki of 0.1 to 100 nM.
For C[C@H]1CCCN1CCCOc1ccc(C(=O)CN2CCOCC2)cc1 [Example 42, 1-{4-[3-((S)-2-Methyl-pyrrolidin-1-yl)-propoxy]-phenyl}-2-morpholin-4-yl-ethanone], the Ki was 501 to 1000 nM.

Same assay, conditions: membranes of CHO-A3 cells expressing rat H3; [3H]-N-alpha-methylhistamine; read-out: Rat H3 Ki
CC1CCCN1CCCOc1ccc(C(CN2CCOCC2)=NOC(C)(C)C)cc1 (racemic) [Example 165] showed a Ki of 0.1 to 100 nM.
With C[C@@H]1CCCN1CCCOc1ccc(C(=O)CN2CCCCC2)cc1 [Example 8, 1-{4-[3-((R)-2-Methyl-pyrrolidin-1-yl)-propoxy]-phenyl}-2-piperidin-1-yl-ethanone] the Ki was 0.1 to 100 nM.
